We go through 2 compounds from patent US11261453B2, “Cells expressing apolipoprotein E and uses thereof” (Whitehead Institute for Biomedical Research, priority 2014, dated 2022).

The subject of series [1] is ApoE4-mediated toxicity. The following applies: known from other experiments; cited from earlier work.
Series [2] relates to ApoE4-mediated toxicity. The experiment in a line: Compound test in ApoE4 hitox yeast strain (PDR1 and PDR3 deleted), optical density at A600 after 24 hours. The note with it: A600, FIG. 10. The series is classed as cell-based, Saccharomyces cerevisiae. As to the method: An ApoE4 hitox strain harboring 3-4 copies of the ApoE4 construct and with the drug-pump transcription factors PDR1 and PDR 3 deleted was used in this experiment. Cells were grown in raffinose; cells were diluted into galactose medium (to initiate expression of the expression construct). Test compounds were added to the cultures at various concentrations ranging from 0.25 μM to 32.0 μM; cells were grown for 24 hours after addition of the compounds, and the optical densities were then read at A600.

Series [3] deals with Ste3 endocytosis to the vacuole. The experiment in a line: Ste3-mKate2 endocytosis assay, fluorescence microscopy. The class given is cell-based, Saccharomyces cerevisiae. The following applies: 6-8 hours of induction with galactose, FIG. 13. From the text:
The effect of ApoE on endocytosis in yeast was further analyzed using a Ste3-mKate2 assay. Ste3 is a yeast G-protein coupled receptor (GPCR) that natively undergoes endocytosis from the cell surface to the vacuole. When clathrin-mediated endocytosis is disrupted, Ste3 trafficking can be disrupted as well.
The trafficking of Ste3 was observed using fluorescence microscopy by overexpressing a fluorescently-tagged (mKate2) version of Ste3 from a pAG423 galactose-inducible plasmid. The ApoE4 hitox strain described above was transformed with the pAG423-Ste3-mKate2 plasmid. In addition, yeast strains as described in Example 4 harboring expression constructs encoding human neurodegenerative disease-associated proteins alpha-synuclein (α-syn intox) or Aβ (Kar2ss-Aβ strain described in Treusch, S., et al., Science. (2011), 334:1241-5) were also transformed with the pAG423-Ste3-mKate2 plasmid. A strain transformed with a Gal-GFP plasmid served as a negative control. […] (FIG. 13).

Take `Oc1c(I)cc(Cl)c2cccnc12` [clioquinol]: in series [1], the “toxicity of the compound itself to yeast” value is “becomes toxic to yeast at high concentrations”. Further, the “ability to reduce ApoE4-mediated toxicity” value in series [2] (0.25 μM to 32.0 μM) is reported as “able to reduce ApoE4-mediated toxicity”. Moreover, the “concentrations at which ApoE4-mediated toxicity is reduced” value in series [2] is recorded as “below 1.5 μM”.
Take “Aβ: human amyloid beta expressed in yeast (Kar2ss-Aβ strain)”: the “effect on Ste3 endocytosis” value in series [3] is “disruption of Ste3 endocytosis”.
